Source: publication PMC11783601, “Analogue-Sensitive Inhibition of Histone Demethylases Uncovers Member-Specific Function in Ribosomal Protein Synthesis” (Journal of the American Chemical Society, 2025)
“Also recorded” adds a separate entry of the source.

Assays:
Assay in all cases: H3K9me3 Western blot of nuclear extracts of transfected HEK293T cells
Assay type in all cases: cell-based
[1] = target: T1, full-length KDM4E-F186A (Homo sapiens, UniProt B2RXH2, F186A); details: 25-200 µM
T1 construct: we generated the full-length as mutants of the remaining KDM4s; host or cells: HEK293T
Source text: (§1) KDM4B and C are structurally homologous to KDM4A, and KDM4D and E have a catalytic pocket near-identical to that of KDM4A but lack the Tudor and PHD domains known to bind trimethylated lysine in histones (Figure 1B).[11] HEK293T cells were transfected with full-length wild type KDM4B-E or their respective mutants. Western blot analysis of nuclear preparations using the H3K9me3 antibody confirmed all of the proteins to be catalytically active (Figures 4G–N and S32–S35).
(§2) KDM4A mammalian expression plasmid in CMV vector was purchased from Addgene (plasmid #24180). KDM4B mammalian expression plasmid in CMV vector was purchased from Addgene (plasmid #24181). KDM4C mammalian expression plasmid in CMV vector was purchased from Addgene (plasmid #24214). KDM4D mammalian expression plasmid in pReciever vector was purchased from Genecopoia (EX-Z0917-M06.) KDME mammalian expression plasmid in pRP-EXP was designed from Vector Builder. The KDM4A-F185A, KDM4B-F186A, KDM4C -F187A, KDM4D-F189A, and KDM4E F186A mutants were generated using Quikchange Lightening Mutagenesis Kit (Agilent) according to manufacturer’s protocol and confirmed by Sanger […]
(§3) HEK293T/17 cells (ATCC) were grown in Delbucco’s Modified Eagle Medium (DMEM) (Corning) with 10% FBS at 37 °C (Corning), 5% CO2, and 95% relative humidity in a 6-well cell culture plate. When cells reached 90% confluency, 3 µg of plasmid and 6 µg lipofectamine 2000 (Invitrogen: 11668019) were incubated with 100 µL OptiMem. After 5 minutes the plasmid and lipofectamine were combined and incubated at room temperature for 20 minutes and added to the cell culture disk. Cells were returned to the incubator to grow for 4-6 hours. This was followed by treatment of compound treatment (n-octyl IOX121,22 or a specific NOG ester) at indicated concentrations and further culture for specified time. The media was removed, and cells were washed with ice cold PBS (Corning), then trypsinized with TrpLE Express (Gibco). The trypsinization reaction was quenched with DMEM 10% FBS and cells were pelleted then washed once with ice cold PBS. The nuclear extracts were generated by first resuspending the cell pellets in 700 µL nuclear isolation buffer (15 mM Tris pH 7.5, 60 mM KCl, 15 mM NaCl, 5 mM MgCl2, 1 mM CaCl2, 1mm DTT, 2 mM Na3Van, 250 mM sucrose, 1X Pierce protease inhibitor (Thermo Fisher #PIA32955), 1 mM PMSF, 0.3% NP40 diluted to volume with MilliQ H2O) and incubated on ice for 5 minutes.23 The samples were then pelleted by centrifugation at 2000 rcf for 5 minutes.
(§4) The supernatant was removed, and the pelleted nuclei were resuspended in 200 µL Pierce IP lysis buffer (Thermo Fisher #87787) containing 1X Pierce protease inhibitor and left on ice for 5 minutes. The nuclei were then sonicated at 100% amp for 5 minutes (pulsed 1 minute “on”, 20 seconds “rest”) using a Qsonica-Q700, cuphorn sonicator. The samples were pelleted once again at 2000 rcf for 5 minutes and the supernatant containing the nuclear extracts were collected. MgCl2 (1M) solution was added to each sample give a final concentration of 6mM. […]
(§5) Prism with the corresponding bars representing the mean and standard deviation of the population.
(§6) For the time dependent imaging, cells containing the transfected KDM4A mutant were identified by their HA signal. These cells were used to create a selection which was then imposed onto the respective H3K9me3 or BrdU images. The mean signal was then measured for H3K9me3 or BrdU only within the cells expressing the KDM4A mutant. To compare changes in H3K9me3 or BrdU between trials, the quantification values were normalized to the mean signal at t=0. The normalized, mean signal and error for H3K9me3 or BrdU were then plotted in GraphPad Prism.
(§7) 21. General protocol for Western blotting
(§8) Assay samples were mixed with appropriate volume of 4X Laemmli Dye (Bio-Rad), heated at 95 °C for 5 minutes and loaded onto 4–12% Criterion™ XT Bis-Tris protein gels (Bio-Rad #3450123) or in-house prepared SDS-polyacrylamide gel and subjected to electrophoresis […]

[2] = target: T2, full-length KDM4D-F189A (Homo sapiens, UniProt Q6B0I6, F189A); details: 25-200 µM
T2 construct: we generated the full-length as mutants of the remaining KDM4s; host or cells: HEK293T
Source text: as §1, §2, §3, §4, §5, §6, §7, §8

[3] = target: T3, full-length KDM4B-F186A (Homo sapiens, UniProt O94953, F186A); details: for inhibition of KDM4B-F186A (asKDM4B) H3K9me3 demethylation: 10 μM concentration; for inhibition of KDM4B-F186A H3K9me3 demethylation, dose-dependent: 10, 20 µM
T3 construct: we generated the full-length as mutants of the remaining KDM4s; host or cells: HEK293T
T3 sequence (O94953 1-1096 F186A): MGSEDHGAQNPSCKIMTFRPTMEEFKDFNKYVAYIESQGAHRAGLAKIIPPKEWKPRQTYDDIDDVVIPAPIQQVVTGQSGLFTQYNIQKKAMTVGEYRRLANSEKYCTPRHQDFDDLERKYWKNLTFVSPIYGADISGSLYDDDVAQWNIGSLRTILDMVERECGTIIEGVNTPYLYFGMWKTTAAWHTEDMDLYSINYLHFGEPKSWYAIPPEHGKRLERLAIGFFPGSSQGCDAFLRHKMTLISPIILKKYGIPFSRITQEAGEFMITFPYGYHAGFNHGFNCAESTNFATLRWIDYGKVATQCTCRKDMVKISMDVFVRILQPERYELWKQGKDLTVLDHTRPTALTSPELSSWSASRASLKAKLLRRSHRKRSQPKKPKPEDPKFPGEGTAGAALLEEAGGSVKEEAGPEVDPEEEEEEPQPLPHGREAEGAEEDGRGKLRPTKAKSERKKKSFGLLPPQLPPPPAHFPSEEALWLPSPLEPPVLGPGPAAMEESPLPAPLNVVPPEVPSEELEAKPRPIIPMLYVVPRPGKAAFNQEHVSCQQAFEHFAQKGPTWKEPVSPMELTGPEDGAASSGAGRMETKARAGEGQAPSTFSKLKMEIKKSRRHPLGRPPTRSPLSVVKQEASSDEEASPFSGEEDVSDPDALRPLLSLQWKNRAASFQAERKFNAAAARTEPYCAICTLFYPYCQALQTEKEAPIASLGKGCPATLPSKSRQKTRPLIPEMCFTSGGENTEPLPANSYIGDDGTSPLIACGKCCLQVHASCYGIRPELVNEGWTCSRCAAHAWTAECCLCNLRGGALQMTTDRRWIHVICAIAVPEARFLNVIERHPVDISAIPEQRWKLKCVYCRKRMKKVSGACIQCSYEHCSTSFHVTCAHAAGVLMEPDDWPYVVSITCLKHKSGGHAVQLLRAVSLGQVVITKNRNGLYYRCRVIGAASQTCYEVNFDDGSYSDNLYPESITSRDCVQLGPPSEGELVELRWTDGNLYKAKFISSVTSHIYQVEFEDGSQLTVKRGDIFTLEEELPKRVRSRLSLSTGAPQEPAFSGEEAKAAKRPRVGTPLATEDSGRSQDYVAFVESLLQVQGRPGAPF
Source text: as §1, §2, §3, §4, §5, §6, §7, §8

[4] = target: T4, full-length KDM4C-F187A (Homo sapiens, UniProt Q9H3R0, F187A); details: 25-200 µM
T4 construct: we generated the full-length as mutants of the remaining KDM4s; host or cells: HEK293T
Source text: as §1, §2, §3, §4, §5, §6, §7, §8

T1 sequence (B2RXH2 whole entry F186A): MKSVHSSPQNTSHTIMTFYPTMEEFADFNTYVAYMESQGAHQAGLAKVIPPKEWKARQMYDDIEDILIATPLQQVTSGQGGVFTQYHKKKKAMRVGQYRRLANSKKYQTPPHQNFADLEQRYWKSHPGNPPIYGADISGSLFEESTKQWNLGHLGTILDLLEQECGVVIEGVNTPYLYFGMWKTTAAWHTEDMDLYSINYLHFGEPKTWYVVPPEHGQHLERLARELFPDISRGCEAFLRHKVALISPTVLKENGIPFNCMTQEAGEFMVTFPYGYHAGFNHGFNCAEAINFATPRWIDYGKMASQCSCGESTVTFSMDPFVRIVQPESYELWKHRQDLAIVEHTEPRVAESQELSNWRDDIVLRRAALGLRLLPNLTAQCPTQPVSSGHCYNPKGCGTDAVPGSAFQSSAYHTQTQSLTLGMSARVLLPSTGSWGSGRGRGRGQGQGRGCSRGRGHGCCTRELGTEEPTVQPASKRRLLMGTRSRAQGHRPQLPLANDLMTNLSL
T2 sequence (Q6B0I6 whole entry F189A): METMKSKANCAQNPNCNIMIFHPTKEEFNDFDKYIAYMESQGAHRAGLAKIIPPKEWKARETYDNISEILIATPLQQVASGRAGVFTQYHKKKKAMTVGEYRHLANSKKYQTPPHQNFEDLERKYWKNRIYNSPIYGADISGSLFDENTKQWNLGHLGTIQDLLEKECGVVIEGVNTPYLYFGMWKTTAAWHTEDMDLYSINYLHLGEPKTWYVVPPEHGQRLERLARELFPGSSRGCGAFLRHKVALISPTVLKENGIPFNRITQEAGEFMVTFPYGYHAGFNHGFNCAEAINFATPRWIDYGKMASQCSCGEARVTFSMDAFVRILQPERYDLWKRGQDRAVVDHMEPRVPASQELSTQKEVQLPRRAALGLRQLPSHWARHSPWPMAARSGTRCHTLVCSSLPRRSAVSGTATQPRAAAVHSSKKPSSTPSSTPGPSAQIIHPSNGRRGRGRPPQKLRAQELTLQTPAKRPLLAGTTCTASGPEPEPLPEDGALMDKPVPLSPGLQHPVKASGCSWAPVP
T4 sequence (Q9H3R0 whole entry F187A): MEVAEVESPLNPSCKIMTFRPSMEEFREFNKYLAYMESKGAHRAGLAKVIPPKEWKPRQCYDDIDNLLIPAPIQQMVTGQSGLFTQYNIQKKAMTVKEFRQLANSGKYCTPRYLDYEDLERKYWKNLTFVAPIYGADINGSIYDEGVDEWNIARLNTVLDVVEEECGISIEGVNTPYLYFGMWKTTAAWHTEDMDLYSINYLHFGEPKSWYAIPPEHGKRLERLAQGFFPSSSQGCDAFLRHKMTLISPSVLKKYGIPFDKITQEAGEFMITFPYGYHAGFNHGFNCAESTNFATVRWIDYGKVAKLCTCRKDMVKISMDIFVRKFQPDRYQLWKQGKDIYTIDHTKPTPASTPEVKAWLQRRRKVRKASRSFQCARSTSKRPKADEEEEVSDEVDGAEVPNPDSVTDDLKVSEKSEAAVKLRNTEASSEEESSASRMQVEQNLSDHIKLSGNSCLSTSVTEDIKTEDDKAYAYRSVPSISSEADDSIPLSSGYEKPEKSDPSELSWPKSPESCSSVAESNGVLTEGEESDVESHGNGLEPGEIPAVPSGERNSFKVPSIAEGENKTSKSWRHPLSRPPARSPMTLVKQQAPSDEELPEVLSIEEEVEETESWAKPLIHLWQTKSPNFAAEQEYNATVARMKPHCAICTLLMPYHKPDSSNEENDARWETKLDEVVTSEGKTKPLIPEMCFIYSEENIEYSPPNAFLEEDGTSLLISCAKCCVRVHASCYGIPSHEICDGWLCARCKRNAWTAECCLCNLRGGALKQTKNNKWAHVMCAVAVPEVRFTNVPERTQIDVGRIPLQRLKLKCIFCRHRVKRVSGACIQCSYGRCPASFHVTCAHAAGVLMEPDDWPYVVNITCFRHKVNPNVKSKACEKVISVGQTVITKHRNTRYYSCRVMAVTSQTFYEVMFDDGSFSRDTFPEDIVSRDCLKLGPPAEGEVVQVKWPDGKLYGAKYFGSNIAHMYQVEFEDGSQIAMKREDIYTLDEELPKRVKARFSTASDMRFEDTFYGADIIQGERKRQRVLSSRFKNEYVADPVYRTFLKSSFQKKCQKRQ

In the case of `CCCCCCCCOC(=O)C(=O)NC(CC(C)C)C(=O)O` [6A, L-Leu octyl-ester NOG], the “inhibition of KDM4E-F186A H3K9me3 demethylation” value [1] was “Dose-dependent inhibition; also recorded: significantly reduced”, the “inhibition of KDM4D-F189A H3K9me3 demethylation” value [2] was “Dose-dependent inhibition; also recorded: significantly reduced” and the “inhibition of KDM4B-F186A (asKDM4B) H3K9me3 demethylation” value [3] was “robust inhibition”. The “inhibition of KDM4B-F186A H3K9me3 demethylation, dose-dependent” value [3] was “Dose-dependent inhibition; also recorded: significantly reduced” and the “inhibition of KDM4C-F187A H3K9me3 demethylation” value [4] was “Dose-dependent inhibition; also recorded: significantly reduced”.

With `CC(C)CC(NC(=O)C(=O)OCc1cccc(C(F)(F)F)c1)C(=O)O` [6B, L-Leu TFMB-ester NOG] the “inhibition of KDM4E-F186A H3K9me3 demethylation” value [1] was “significantly reduced”, the “inhibition of KDM4D-F189A H3K9me3 demethylation” value [2] was “Inhibition; also recorded: significantly reduced” and the “inhibition of KDM4B-F186A (asKDM4B) H3K9me3 demethylation” value [3] was “robust inhibition”. The “inhibition of KDM4B-F186A H3K9me3 demethylation, dose-dependent” value [3] was “Dose-dependent inhibition; also recorded: significantly reduced” and the “inhibition of KDM4C-F187A H3K9me3 demethylation” value [4] was “significantly reduced”.
